Test results reported in PMC12186844 (ACS Chemical Neuroscience, 2025).
Where a chain is given by its changes, count along the chain named.

How the values were obtained:
[1] = target: SNAP-D2SR W384^7.40A (Homo sapiens, UniProt P14416, W413A); assay: functional cAMP assay, BRET biosensor; format: cell-based
Description: (§1) Flp-In-CHO cells stably coexpressing the CAMYEL biosensor and DRs were plated into white 96-well CulturPlates (Revvity) and grown overnight. The cells were equilibrated in Hank’s balanced salt solution (HBSS) at 37 °C (or 25 °C when indicated) before starting the experiment. The cells were costimulated with the agonists and 10 μM forskolin for the indicated time frames when the BRET readings were captured. Coelenterazine (Nanolight Technology, AZ) was added at a final concentration of 5 μM at least 3 min prior to measurement. […] Net BRET was determined by subtraction of the vehicle control coadded with 10 μM forskolin. For phenoxybenzamine alkylation experiments, the cells were treated with 0.1, 0.3, or 1 μM phenoxybenzamine (Sigma-Aldrich) diluted in HBSS and equilibrated at 37 °C for 30 min prior to the commencement of the assay.
(§2) Dose–response curves were fitted using the following three-parameter equation: response=bottom+top−bottom/1+10^(logEC50−log[A]) 5 where top and bottom represent the maximal and minimal asymptote of the dose response curve, [A] is the molar concentration of the agonist, and EC50 is the molar concentration of the agonist required to give a response half-way between bottom and top.

[2] = target: SNAP-D2SR L94^2.64A (Homo sapiens, UniProt P14416, L94A); assay: functional cAMP assay, BRET biosensor; format: cell-based
Description: as §1, §2

[3] = target: SNAP-D2SR T398^7.54A (Homo sapiens, UniProt P14416, T427A); assay: functional cAMP assay, BRET biosensor; format: cell-based; parameters: expressed in transfected cells
Sequence of SNAP-D2SR T398^7.54A (P14416 1-414 isoform P14416-2 T398A): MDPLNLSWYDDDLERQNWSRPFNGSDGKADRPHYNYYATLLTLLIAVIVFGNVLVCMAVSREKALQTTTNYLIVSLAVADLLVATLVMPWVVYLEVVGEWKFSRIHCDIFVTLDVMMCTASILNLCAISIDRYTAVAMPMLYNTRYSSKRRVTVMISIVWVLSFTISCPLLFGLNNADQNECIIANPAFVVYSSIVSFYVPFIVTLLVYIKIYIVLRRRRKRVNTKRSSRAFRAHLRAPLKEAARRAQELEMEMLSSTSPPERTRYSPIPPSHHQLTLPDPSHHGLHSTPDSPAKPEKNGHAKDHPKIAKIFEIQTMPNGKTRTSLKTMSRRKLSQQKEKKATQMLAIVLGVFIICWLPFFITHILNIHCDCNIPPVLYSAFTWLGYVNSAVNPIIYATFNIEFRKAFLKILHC
Description: (§3) Flp-In-CHO cells stably coexpressing the CAMYEL biosensor and DRs were plated into white 96-well CulturPlates (Revvity) and grown overnight. The cells were equilibrated in Hank’s balanced salt solution (HBSS) at 37 °C (or 25 °C when indicated) before starting the experiment. The cells were costimulated with the agonists and 10 μM forskolin for the indicated time frames when the BRET readings were captured. Coelenterazine (Nanolight Technology, AZ) was added at a final concentration of 5 μM at least 3 min prior to measurement. […] Net BRET was determined by subtraction of the vehicle control coadded with 10 μM forskolin.
as §2

[4] = target: SNAP-D2SR N393^7.49A (Homo sapiens, UniProt P14416, N422A); assay: cell membrane [3H]spiperone assay
Sequence of SNAP-D2SR N393^7.49A (P14416 1-414 isoform P14416-2 N393A): as the sequence (P14416 1-414 isoform P14416-2 T398A) above, with N393A, A398T counted along it
Description: (§4) Flp-In-CHO cells stably expressing the wild-type or mutant DRs were grown to 90% confluence in 175 cm^2 cell culture flasks. The cells were harvested in PBS containing 2 mM EDTA and centrifuged at 300g for 3 min. The resulting pellet was resuspended in ice-cold assay buffer (20 mM HEPES, 100 mM NaCl, 6 mM MgCl2, 1 mM EGTA, and 1 mM EDTA, pH 7.4), and the centrifugation step was repeated. The intact cell pellet was then resuspended in assay buffer and homogenized using a Polytron homogenizer. After centrifugation (1000g, 10 min), the pellet was discarded, and the supernatant was recentrifuged at 30,000g for 1 h at 4 °C using a Sorvall Evolution RC ultracentrifuge (Thermo Scientific). The resulting pellet was resuspended in assay buffer and stored in 250 μL aliquots at −80 °C. Membrane protein concentration was determined using a Pierce’s BCA protein assay kit (Thermo Fisher, Melbourne).
(§5) [^3H]­Spiperone binding experiments using cell membranes were conducted in a 200 μL reaction volume in assay buffer (20 mM HEPES, 100 mM NaCl, 6 mM MgCl2, 1 mM EGTA, and 1 mM EDTA, pH 7.4) containing 100 μM GppNHp and 0.1% ascorbic acid in 96-well plates. […] In all cases, nonspecific binding was determined in the presence of 10 μM haloperidol. […] Filter bound radioactivity was detected as a chemiluminescence after the addition of MicroScint-20 (Revvity) in a MicroBeta plate counter (Revvity). […]

[5] = target: SNAP-D2SR V91^2.61A (Homo sapiens, UniProt P14416, V91A); assay: functional cAMP assay, BRET biosensor; format: cell-based
Sequence of SNAP-D2SR V91^2.61A (P14416 1-414 isoform P14416-2 V91A): as the sequence (P14416 1-414 isoform P14416-2 T398A) above, with V91A, A398T counted along it
Description: as §1, §2

[6] = target: SNAP-D2SR W100^ECL1A (Homo sapiens, UniProt P14416, W100A); assay: functional cAMP assay, BRET biosensor; format: cell-based
Sequence of SNAP-D2SR W100^ECL1A (P14416 1-414 isoform P14416-2 W100A): as the sequence (P14416 1-414 isoform P14416-2 T398A) above, with W100A, A398T counted along it
Description: as §1, §2

[7] = target: T1, SNAP-D2SR L76^2.46A (Homo sapiens, UniProt P14416, L76A); assay: cell membrane [3H]spiperone assay
T1 sequence (P14416 1-414 isoform P14416-2 L76A): as the sequence (P14416 1-414 isoform P14416-2 T398A) above, with L76A, A398T counted along it
Description: as §4, §5

[8] = target: T2, SNAP-D2SR C118^3.36A (Homo sapiens, UniProt P14416, C118A); assay: cell membrane [3H]spiperone assay
T2 sequence (P14416 1-414 isoform P14416-2 C118A): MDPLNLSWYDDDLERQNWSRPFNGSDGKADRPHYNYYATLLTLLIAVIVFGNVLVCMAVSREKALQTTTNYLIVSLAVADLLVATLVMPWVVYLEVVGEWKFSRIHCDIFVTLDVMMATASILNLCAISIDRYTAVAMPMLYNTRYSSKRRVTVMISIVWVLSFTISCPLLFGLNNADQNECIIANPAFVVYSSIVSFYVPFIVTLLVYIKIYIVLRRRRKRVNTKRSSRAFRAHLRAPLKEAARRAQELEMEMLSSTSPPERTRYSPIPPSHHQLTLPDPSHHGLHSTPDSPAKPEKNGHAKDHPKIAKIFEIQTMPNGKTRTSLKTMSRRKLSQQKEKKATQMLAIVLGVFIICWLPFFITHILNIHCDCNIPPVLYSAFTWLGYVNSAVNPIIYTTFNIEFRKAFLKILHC
Description: as §4, §5

[9] = target: T3, SNAP-D2SR S121^3.39A (Homo sapiens, UniProt P14416, S121A); assay: functional cAMP assay, BRET biosensor; format: cell-based
T3 sequence (P14416 1-414 isoform P14416-2 S121A): T2 sequence (P14416 1-414 isoform P14416-2 C118A) with A118C, S121A
Description: as §3, §2

[10] = target: SNAP-D2SR WT (Homo sapiens, UniProt P14416); assay: cell membrane [3H]spiperone assay
Sequence of SNAP-D2SR WT (P14416 1-414 isoform P14416-2): as the sequence (P14416 1-414 isoform P14416-2 T398A) above, with A398T counted along it
Description: as §4
(§6) [^3H]­Spiperone binding experiments using cell membranes were conducted in a 200 μL reaction volume in assay buffer (20 mM HEPES, 100 mM NaCl, 6 mM MgCl2, 1 mM EGTA, and 1 mM EDTA, pH 7.4) containing 100 μM GppNHp and 0.1% ascorbic acid in 96-well plates. […] In all cases, nonspecific binding was determined in the presence of 10 μM haloperidol. To obtain affinity estimates of unlabeled agonists, competition binding experiments were performed at equilibrium. […] After this incubation period, bound and free radioligands were separated by fast-flow filtration through UniFilter-96 GF/B plates using a MicroBeta FilterMate harvester (Revvity) followed by three washes with ice-cold 0.9% NaCl. Filter bound radioactivity was detected as a chemiluminescence after the addition of MicroScint-20 (Revvity) in a MicroBeta plate counter (Revvity).
IC50 values obtained from the inhibition curves were converted to Ki values using the Cheng and Prusoff equation.

[11] = target: T1, SNAP-D2SR L76^2.46A; assay: functional cAMP assay, BRET biosensor; format: cell-based
Description: as §3, §2

[12] = target: SNAP-D2SR F353^6.44A (Homo sapiens, UniProt P14416, F382A); assay: cell membrane [3H]spiperone assay
Sequence of SNAP-D2SR F353^6.44A (P14416 1-414 isoform P14416-2 F353A): as the sequence (P14416 1-414 isoform P14416-2 T398A) above, with F353A, A398T counted along it
Description: as §4, §5

[13] = target: D3R (Homo sapiens, UniProt P35462); assay: cell membrane [3H]raclopride binding assay
Sequence of D3R (P35462 whole entry): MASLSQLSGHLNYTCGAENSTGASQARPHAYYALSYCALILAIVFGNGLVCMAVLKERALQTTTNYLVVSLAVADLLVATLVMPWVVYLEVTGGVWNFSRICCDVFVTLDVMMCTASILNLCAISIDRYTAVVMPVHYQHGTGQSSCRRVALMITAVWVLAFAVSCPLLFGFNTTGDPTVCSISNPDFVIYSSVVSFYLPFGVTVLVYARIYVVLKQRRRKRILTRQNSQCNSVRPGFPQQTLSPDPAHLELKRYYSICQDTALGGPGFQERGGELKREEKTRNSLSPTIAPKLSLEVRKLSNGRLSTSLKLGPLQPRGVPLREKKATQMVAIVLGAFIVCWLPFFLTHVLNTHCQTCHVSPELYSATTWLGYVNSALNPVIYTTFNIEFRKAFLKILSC
Description: as §4, §6

[14] = read-out: D2 PAM2 KB (converted)

Sequence of SNAP-D2SR W384^7.40A (P14416 1-414 isoform P14416-2 W384A): as the sequence (P14416 1-414 isoform P14416-2 T398A) above, with W384A, A398T counted along it
Sequence of SNAP-D2SR L94^2.64A (P14416 1-414 isoform P14416-2 L94A): as the sequence (P14416 1-414 isoform P14416-2 T398A) above, with L94A, A398T counted along it

In the case of COc1cc(CO)c(F)cc1C(=O)n1ccc2c(F)cccc21 [D2 PAM2, [5-fluoro-4-(hydroxymethyl)-2-methoxyphenyl]-(4-fluoro-1H-indol-1-yl)methanone], the Kb [1] is reported as 13.8 µM, the Logτ [1] is reported as -0.24 ± 0.08 and the pKB [1] is reported as 4.86 ± 0.24. The τ [1] was 0.57, the Logαβ ([1]; with DA) was 1.04 ± 0.15 and the αβ ([1]; with DA) was 11.0. It also gave a Kb [2] of 12.6 µM, a Logτ [2] of -0.43 ± 0.07 and a pKB [2] of 4.90 ± 0.12. It also gave a τ [2] of 0.37, a Logαβ ([2]; with DA) of 1.54 ± 0.10 and a αβ ([2]; with DA) of 34.7. For the same molecule, the “D2 PAM2 log τ” value [3] was “–1.40 ± 0.22”, the “D2 PAM2 pKB” value [3] was 5.35 ± 0.17 and the “D2 PAM2 τ” value [3] was 0.04. The “fold decrease in cooperativity with DA” value ([3]; cAMP) was 6 fold, the Kb [3, 14] was 4 µM and the “D2 PAM2 log αβ” value ([3]; with DA) was 0.46 ± 0.05. For the same molecule, the “D2 PAM2 αβ” value ([3]; with DA) was 2.9, the “fold shift + 10 μM PAM” value ([4]; shift of DA IC50) was 0.8 fold and the “ΔpIC50 + 10 μM PAM” value ([4]; shift of DA pIC50) was “–0.08 ± 0.10”. For the same molecule, the Kb [5] was 2.6 µM, the Logτ [5] was -0.23 ± 0.08 and the pKB [5] was 5.59 ± 0.21. For the same molecule, the τ [5] was 0.59, the Logαβ ([5]; with DA) was 0.93 ± 0.18 and the αβ ([5]; with DA) was 8.5. The Kb [6] was 11.7 µM, the Logτ [6] was -0.43 ± 0.06 and the pKB [6] was 4.93 ± 0.28. It also gave a τ [6] of 0.37, a Logαβ ([6]; with DA) of 1.54 ± 0.10 and a αβ ([6]; with DA) of 34.7. The “fold shift + 10 μM PAM” value ([7]; shift of DA IC50) was 3.5 fold, the “ΔpIC50 + 10 μM PAM” value ([7]; shift of DA pIC50) was 0.55 ± 0.07 and the “fold shift + 10 μM PAM” value ([8]; shift of DA IC50) was 2 fold. For the same molecule, the “ΔpIC50 + 10 μM PAM” value ([8]; shift of DA pIC50) was 0.31 ± 0.10, the “D2 PAM2 log τ” value [9] was “–1.18 ± 0.15” and the “D2 PAM2 pKB” value [9] was 4.83 ± 0.11. The “D2 PAM2 τ” value [9] was 0.06, the Kb [9, 14] was 15 µM and the “D2 PAM2 log αβ” value ([9]; with DA) was 1.14 ± 0.06. For the same molecule, the “D2 PAM2 αβ” value ([9]; with DA) was 14, the pKB ([10]; [3H]spiperone competition binding interaction experiment) was 5.04 ± 0.17 and the Kb ([10]; binding interaction experiment) was 9 µM. For the same molecule, the “log α” value ([10]; cooperativity with DA, binding) was 1.05 ± 0.10, the α ([10]; cooperativity with DA, binding) was 11 and the “fold shift + 10 μM PAM” value ([10]; shift of DA IC50) was 9 fold. The “ΔpIC50 + 10 μM PAM” value ([10]; shift of DA pIC50) was 0.97 ± 0.20, the “D2 PAM2 log τ” value [11] was “–3” and the “D2 PAM2 pKB” value [11] was 5.52 ± 0.31. The “fold decrease in cooperativity between D2 PAM2 and DA” value [11] was 5 fold, the Kb [11, 14] was 3 µM and the “D2 PAM2 log αβ” value ([11]; with DA) was 0.56 ± 0.09. For the same molecule, the “D2 PAM2 αβ” value ([11]; with DA) was 3.6, the “fold shift + 10 μM PAM” value ([12]; shift of DA IC50) was 1.3 fold and the “ΔpIC50 + 10 μM PAM” value ([12]; shift of DA pIC50) was 0.10 ± 0.12. For the same molecule, the Kb [13] was 17 µM, the logα_DA [13] was 0.98 ± 0.02 and the “logα_[3H]raclo” value [13] was -0.14 ± 0.04. For the same molecule, the pKB [13] was 4.77 ± 0.14, the α_DA [13] was 9.5 and the “α_[3H]raclo” value [13] was 0.72.
